We go through 5 compounds from patent US20110152379A1, “COMPOSITION FOR CONTROL OF AGING AND/OR EXTENSION OF LIFE, CONTAINING DAPSONE AS ACTIVE INGREDIENT” (priority 2008, published 2011).

Data set [1] deals with cytosolic superoxide anion. In words: Superoxide anion in cell (cytoplasm), DHE. It counts as cell-based. The conditions noted are these: human diploid fibroblast; 1 mM PQ 30 minutes; FIG. 24A. As for the experimental part:
(§1) The cell was treated with 1 mM of PQ for 30 minutes, and then was cultured at 37° C. for 15 minutes after adding oxidant-sensitive fluorescent dyes (A) DHE (5 uM, cytosol specific) and (B) MitoSOX (5 uM, mitochondria specific), respectively. For identifying the change of fluorescence, the excitation and emission wavelength of DHE were measured at 515 and 590 nm and MitoSOX was measured at 520 and 580 nm by using a multiwell plate reader. The results were indicated by calculating the results of three experiments as a control rate (%). The statistical significant was expressed as *, # p<0.005; ** p<0.05.
The cell was twice washed with DPBS and Ethidium-DNA that fluoresces was immediately measured at excitation wavelength 515 nm and emission wavelength 590 nm by using Cary Eclipse fluorescence spectrophotometer (Varian, Calif., USA) machine.

Data set [2] deals with mitochondria superoxide anion. The data set is described as follows: Superoxide anion in mitochondria, MitoSOX Red. The conditions noted are these: human diploid fibroblast; 1 mM PQ 30 minutes; FIG. 24B. It counts as cell-based. As for the experimental part:
as §1
Mitochondria superoxide anion was measured by using the fluorescence material, i.e., MitoSOX Red. […] The cell was twice washed with DPBS and the fluorescence was immediately measured at excitation wavelength 515 nm and emission wavelength 590 nm by using CEFS [Cary Eclipse fluorescence spectrophotometer (Varian, Calif., USA)] machine.

The subject of data set [3] is membrane potential of mitochondria. In words: Membrane potential of mitochondria, DiOC6 assay. The data set is classed as cell-based, human. As for the experimental part:
The protein amount of mitochondria constituent complex was measured by using Western Blot using Complex I (20 kDa ND6 subunit), Complex II (30 kDa FeS, non-heme iron protein, SDHB), Complex III (47 kDa core protein 2), Complex IV (18 kDa subunit IV), Complex V (55 kDa subunit a ATP synthase), and the like. […] The membrane potential (Δψm) of mitochondria used DiOC6. […] Since then, the above fibroblast was treated with 40 nM of DiOC6 for 15 minutes. The results were measured by using Cary Eclipse Fluorescence Spectrophotometer (Varian, Calif., USA) and the excitation wavelength and emission wavelength were measured at 480 nm and 520 nm, respectively.
The change of membrane potential (Δψm) of mitochondria was measured by using a cationic dye, DiOC6 that is a specific fluorescent material for mitochondria. An aspect of the change was measured by using Fluorescence Spectrophotometer. The cell was cultured in 40 nM DiQC6 for 15 minutes and then the fluorescent material that was left was removed by using PBS. The analysis was performed by using Cary Eclipse fluorescence spectrophotometer (Varian, Calif., USA), and then the excitation wavelength was measured at 480 nm, and the emission wavelength was measured at 520 nm.

For another data set, the system named is mitochondria. In words: Mitochondria structure staining with MitoTracker Red. The data set is classed as cell-based, human. The conditions noted are these: pretreated with DDS or DPI, then 1 mM PQ 24 hours; FIG. 30. As for the experimental part:
The first photograph indicates the stained mitochondria of the non-treated human diploid fibroblast as a control, the second photograph indicates the stained mitochondria of the PQ-treated human diploid fibroblast, the third photograph indicates the stained mitochondria of the human diploid fibroblast that was pretreated with DDS and then was treated with PQ, and the final photograph indicates the stained mitochondria of the human diploid fibroblast that was treated with DPI and PQ together (by using Confocal process). The values of (A, B, C and D: ×4000) is means±SEM (n=3), # is p<0.005 relative CC; and * is p<0.005 relative C.
The human diploid fibroblasts were cultured at 24-well plate. After the above experiment materials, i.e., the human diploid fibroblasts, were pretreated and then were treated with PQ for 24 hours, the above cells were treated with MitoTracker Red CMXRos (50 nM), which is a staining material for mitochondria, at 37° C. for 30 minutes. The dye is a marker of function for marking mitochondria through marking a transmembrane potential of mitochondria in a cell. After culturing, the cells were washed with PBS and then fixed with 4% of paraformaldehyde at 4° C. for overnight. […] After washing, the cells were covered with a cover glass and visualized through a fluorescence microscope.

For the next data set, the system named is Escherichia coli OP50. The data set is described as follows: Growth of OP50 bacteria with PABA and DDS. It counts as cell-based. The conditions noted are these: PABA 10 uM added with DDS; FIG. 1. As for the experimental part:
FIG. 1 is a graph showing the growth degree of bacteria by treating with PABA. […] In order to identify the effect of dapsone on the extending of lifespan, the experiment was performed in the following order. At this time, since dapsone is not a water-soluble material, E. coli was cultured in the medium including dapsone and then was used as a feed for C. elegans. […] The administration of dapsone was started after L4 stage that almost finishes the generation, and the experiment was performed as follows under the condition of 20° C. in order to provide the optimal growth environment: […]

In a further data set the test system is human diploid fibroblast. In words: Survival rate of human diploid fibroblast treated with PQ (CCK-8). The conditions noted are these: 1 mM PQ for 48 hours without any pretreatments. As for the experimental part: The above cell was cultured by adding Cell Counting Kit-8 for 48 hours and then the survival ability of cell was measured. In addition, DPI (5 uM) was pretreated for 30 minutes and NAC (2 mM) was pretreated for 3 hours, and then 1 mM of PQ was treated as a positive control.
The evaluation of survival rate of cell was performed by using Counting Kit (CCK-8) from Dojindo Laboratory Company (Japan). The human diploid fibroblast was cultured at 96-well plate for 24 hours before treating. […] The absorbance was measured at 450 nm.

Data set [4] in a line: DPPH radical scavenging activity in cell-free system. It counts as biochemical. Particulars: 0.1-100 uM; 200 uM DPPH; FIG. 25A. As for the experimental part: The radical scavenging activity was measured as the reducing power of
DPPH included in methanol. […] DPPH is a stable free radical, has a thick purple color, and its absorbance is at 517 nm. However, if it reacts with an antioxidant, it has a pale yellow color. The reaction mixture was maintained for 30 minutes at a room temperature without light and then the absorbance was measured at 517 nm. The free radical scavenging activity was calculated as the suppression rate by using the following equation:
% suppression=[(Absorbance of Control−Absorbance of Sample)/Control Absorbance]×100.
(In general: The DPPH test is a chemical assay of radical scavenging.)

SMILES strings stand for the structures.

Take `c1ccc2c(c1)[I+]c1ccccc1-2` [DPI]: in data set [1], the “superoxide anion of cytoplasm produced by PQ (DHE assay)” value was “suppressed”. Also, the “production of superoxide anion in the mitochondria” value in data set [2] is on record as “suppress”. Moreover, the “decrease of membrane potential induced by PQ” value in data set [3] (pretreated with DDS (3 hours) or DPI (30 minutes), then 1 mM PQ 24 hours, FIG. 29B) is recorded as “meaningfully maintained”. Besides, in the data set with mitochondria, the “shape of mitochondria after PQ (MitoTracker)” value was “recovered, partially”.
As for `CC(=O)N[C@@H](CS)C(=O)O` [NAC, N-acetyl-L-cystein], the “superoxide anion of cytoplasm produced by PQ (DHE assay)” value in data set [1] is “suppressed”. Further, the “production of superoxide anion in the mitochondria” value in data set [2] is on record as “suppress”.
For the compound `Nc1ccc(C(=O)O)cc1` [PABA, para-aminobenzoic acid], the “growth rate of bacteria relative to control” value in the data set with Escherichia coli OP50 amounted to 80%.
For the compound `C[n+]1ccc(-c2cc[n+](C)cc2)cc1` [PQ, paraquat], in the data set with human diploid fibroblast, the “viability of human diploid fibroblast compared with the non-treated control” value is given as “about 58.8%”. In addition, the “membrane potential of mitochondria compared with the control” value in data set [3] (human diploid fibroblast, 1 mM PQ for 24 hours) came out at 76.8%.
Consider `Cc1c(C)c2c(c(C)c1O)CCC(C)(C(=O)O)O2` (stereo not shown) [Trolox], for which the “activity of removing ROS on DPPH in the test tube” value in data set [4] is listed as “strong activity of removing ROS”.
